From PubChem BioAssay AID328 (DTP/NCI, 2004)
Several values for one entry are separate records, joined by “and”; a condition that tells them apart may be missing. Identical values can stand only once. Toxic doses and inconclusive results are not listed.

Tested on: BDF1 mice, P388 leukemia ip, median survival T/C
Assay: NCI In Vivo Anticancer Drug Screen. Data for tumor model P388 Leukemia (intraperitoneal) in B6D2F1 (BDF1) mice
Settings: endpoint: median survival time, higher = longer survival
Summary of the method: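 Reported as T/C, where T is the survival measurement in dosed animals and C the same measurement in vehicle controls.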

[1] = dose: 35.0 mg/kg/injection, schedule: Q01DX009 (ip), vehicle: saline
[2] = dose: 50.0 mg/kg/injection, schedule: Q01DX009 (ip), vehicle: saline
[3] = dose: 25.0 mg/kg/injection, schedule: Q01DX009 (ip), vehicle: Klucel (hydroxypropylcellulose) (HPC)
[4] = dose: 50.0 mg/kg/injection, schedule: Q01DX009 (ip), vehicle: Klucel (hydroxypropylcellulose) (HPC)
[5] = dose: 200.0 mg/kg/injection, schedule: Q04DX003 (ip), vehicle: Klucel (hydroxypropylcellulose) (HPC)
[6] = dose: 400.0 mg/kg/injection, schedule: Q04DX003 (ip), vehicle: Klucel (hydroxypropylcellulose) (HPC)
[7] = dose: 25.0 mg/kg/injection, schedule: Q04DX003 (ip), vehicle: Klucel (hydroxypropylcellulose) (HPC)
[8] = dose: 50.0 mg/kg/injection, schedule: Q04DX003 (ip), vehicle: Klucel (hydroxypropylcellulose) (HPC)
[9] = dose: 50.0 mg/kg/injection, schedule: Q01DX009 (ip), vehicle: saline with Tween-80
[10] = dose: 100.0 mg/kg/injection, schedule: Q01DX009 (ip), vehicle: saline with Tween-80
[11] = dose: 200.0 mg/kg/injection, schedule: Q01DX009 (ip), vehicle: saline with Tween-80

Compound: CCN(CC)CCNc1ccc(C)c2sc3ccccc3c(=O)c12 (tested in a mixture with another compound)
- T/C (dose: 5.5 mg/kg/injection, schedule: Q01DX009 (ip), vehicle: saline): 100 % of control and 121 % of control
- T/C (dose: 8.2 mg/kg/injection, schedule: Q01DX009 (ip), vehicle: saline): 90 % of control and 110 % of control
- T/C (dose: 22.0 mg/kg/injection, schedule: Q01DX009 (ip), vehicle: saline): 122 % of control
- T/C (dose: 33.0 mg/kg/injection, schedule: Q01DX009 (ip), vehicle: saline): 110 % of control
- T/C [1]: 116 % of control
- T/C [2]: 154 % of control
- T/C (dose: 75.0 mg/kg/injection, schedule: Q01DX009 (ip), vehicle: saline): 154 % of control and 180 % of control
- T/C (dose: 88.0 mg/kg/injection, schedule: Q04DX003 (ip), vehicle: saline): 122 % of control
- T/C (dose: 100.0 mg/kg/injection, schedule: Q04DX003 (ip), vehicle: alcohol): 94 % of control
- T/C (dose: 100.0 mg/kg/injection, schedule: Q04DX003 (ip), vehicle: saline): 116 % of control
- T/C (dose: 200.0 mg/kg/injection, schedule: Q04DX003 (ip), vehicle: alcohol): 111 % of control
- T/C (dose: 200.0 mg/kg/injection, schedule: Q04DX003 (ip), vehicle: saline): 166 % of control
- T/C (dose: 300.0 mg/kg/injection, schedule: Q04DX003 (ip), vehicle: saline): 95 % of control
- T/C (dose: 400.0 mg/kg/injection, schedule: Q04DX003 (ip), vehicle: alcohol): 111 % of control

Compound: CCOC(=O)c1cc(/C=C/c2ccccc2)[nH]c(=O)c1C#N
- T/C [3]: 91 % of control
- T/C [4]: 91 % of control
- T/C (dose: 100.0 mg/kg/injection, schedule: Q01DX009 (ip), vehicle: Klucel (hydroxypropylcellulose) (HPC)): 95 % of control
- T/C (dose: 100.0 mg/kg/injection, schedule: Q04DX003 (ip), vehicle: Klucel (hydroxypropylcellulose) (HPC)): 95 % of control
- T/C (dose: 200.0 mg/kg/injection, schedule: Q01DX009 (ip), vehicle: Klucel (hydroxypropylcellulose) (HPC)): 92 % of control
- T/C [5]: 104 % of control
- T/C [6]: 104 % of control

Compound: Nc1c(Br)cc2c(c1Br)Cc1cc(Cl)ccc1-2
- T/C (dose: 6.0 mg/kg/injection, schedule: Q04DX003 (ip), vehicle: Klucel (hydroxypropylcellulose) (HPC)): 100 % of control
- T/C (dose: 12.0 mg/kg/injection, schedule: Q04DX003 (ip), vehicle: Klucel (hydroxypropylcellulose) (HPC)): 100 % of control
- T/C [3]: 100 % of control
- T/C [7]: 100 % of control
- T/C [4]: 87 % of control and 90 % of control and 100 % of control
- T/C [8]: 90 % of control
- T/C [5]: 118 % of control
- T/C [6]: 95 % of control and 104 % of control

Compound: C=C(Br)COCC
- T/C (dose: 5.78 mg/kg/injection, schedule: Q01DX001 (ip), vehicle: saline): 95 % of control
- T/C (dose: 11.56 mg/kg/injection, schedule: Q01DX001 (ip), vehicle: saline): 113 % of control
- T/C (dose: 13.75 mg/kg/injection, schedule: Q04DX003 (ip), vehicle: saline): 95 % of control
- T/C (dose: 23.12 mg/kg/injection, schedule: Q01DX001 (ip), vehicle: saline): 104 % of control
- T/C (dose: 27.5 mg/kg/injection, schedule: Q04DX003 (ip), vehicle: saline): 109 % of control
- T/C [1]: 100 % of control
- T/C (dose: 46.25 mg/kg/injection, schedule: Q01DX001 (ip), vehicle: saline): 100 % of control
- T/C (dose: 55.0 mg/kg/injection, schedule: Q01DX009 (ip), vehicle: saline): 109 % of control
- T/C (dose: 55.0 mg/kg/injection, schedule: Q04DX003 (ip), vehicle: saline): 90 % of control
- T/C (dose: 80.0 mg/kg/injection, schedule: Q04DX003 (ip), vehicle: saline): 110 % of control
- T/C (dose: 92.5 mg/kg/injection, schedule: Q01DX001 (ip), vehicle: saline): 113 % of control
- T/C (dose: 125.0 mg/kg/injection, schedule: Q04DX003 (ip), vehicle: saline): 100 % of control
- T/C (dose: 185.0 mg/kg/injection, schedule: Q04DX003 (ip), vehicle: saline): 100 % of control

Compound: O=C(NC(=O)c1c(F)cccc1F)Nc1ccc(OCc2ccccc2)cc1
- T/C [9]: 93 % of control
- T/C [10]: 86 % of control

Compound: Clc1cc(N2CC2)nc(N2CC2)n1
- T/C (dose: 0.11 mg/kg/injection, schedule: Q01DX009 (ip), vehicle: saline): 90 % of control
- T/C (dose: 0.17 mg/kg/injection, schedule: Q01DX009 (ip), vehicle: saline): 95 % of control
- T/C (dose: 0.27 mg/kg/injection, schedule: Q01DX009 (ip), vehicle: saline): 275 % of control
- T/C (dose: 0.4 mg/kg/injection, schedule: Q01DX009 (ip), vehicle: saline): 295 % of control
- T/C (dose: 0.62 mg/kg/injection, schedule: Q01DX009 (ip), vehicle: saline): 157 % of control
- T/C (dose: 1.25 mg/kg/injection, schedule: Q01DX009 (ip), vehicle: saline): 230 % of control
- T/C (dose: 1.56 mg/kg/injection, schedule: Q01DX001 (ip), vehicle: saline): 109 % of control
- T/C (dose: 3.12 mg/kg/injection, schedule: Q04DX003 (ip), vehicle: saline): 104 % of control
- T/C (dose: 6.5 mg/kg/injection, schedule: Q01DX001 (ip), vehicle: saline): 163 % of control
- T/C (dose: 6.5 mg/kg/injection, schedule: Q04DX003 (ip), vehicle: saline): 168 % of control

Compound: CCCCCC(CN(C)C)C(=O)/C=C/c1ccc(Cl)c(Cl)c1 (configuration not stated)
- T/C (dose: 2.75 mg/kg/injection, schedule: Q01DX009 (ip), vehicle: saline): 110 % of control
- T/C (dose: 4.12 mg/kg/injection, schedule: Q01DX009 (ip), vehicle: saline): 105 % of control
- T/C (dose: 50.0 mg/kg/injection, schedule: Q01DX001 (ip), vehicle: saline): 100 % of control

Compound: CC1(C)C2CCC1(C)C1(C2)OC(CCl)CS1 (configuration not stated)
- T/C [9]: 90 % of control
- T/C [10]: 94 % of control
- T/C [11]: 108 % of control

Compound: COc1cccc2c1C(=O)c1c(O)c3c(c(O)c1C2=O)C[C@@](O)(/C(C)=N\O)C[C@@H]3OC1CC(N)C(O)C(C)O1 (some centres not stated)
- T/C (dose: 1.56 mg/kg/injection, schedule: Q01DX009 (ip), vehicle: water): 112 % of control
- T/C (dose: 3.12 mg/kg/injection, schedule: Q01DX009 (ip), vehicle: water): 105 % of control
- T/C (dose: 6.25 mg/kg/injection, schedule: Q01DX009 (ip), vehicle: water): 161 % of control
- T/C (dose: 12.5 mg/kg/injection, schedule: Q01DX009 (ip), vehicle: water): 210 % of control
- T/C (dose: 25.0 mg/kg/injection, schedule: Q01DX009 (ip), vehicle: water): 103 % of control

Compound: CCOC(=O)NC(=S)n1ncnc1N
- T/C (dose: 8.75 mg/kg/injection, schedule: Q01DX009 (ip), vehicle: saline): 95 % of control
- T/C (dose: 12.5 mg/kg/injection, schedule: Q04DX003 (ip), vehicle: Klucel (hydroxypropylcellulose) (HPC)): 110 % of control
- T/C (dose: 17.5 mg/kg/injection, schedule: Q01DX009 (ip), vehicle: saline): 105 % of control
- T/C [7]: 100 % of control
- T/C [1]: 90 % of control
- T/C [8]: 100 % of control

Compound: CC1(C)N=C(N)N=C(N)N1c1ccccc1
- T/C (dose: 12.5 mg/kg/injection, schedule: Q01DX009 (ip), vehicle: saline): 118 % of control
- T/C (dose: 25.0 mg/kg/injection, schedule: Q01DX009 (ip), vehicle: saline): 113 % of control
- T/C [2]: 118 % of control

Compound: COc1ccc(SC2=C(N(C)C(C)=O)C(=O)c3ccccc3C2=O)cc1
- T/C (dose: 0.93 mg/kg/injection, schedule: Q01DX009 (ip), vehicle: Klucel (hydroxypropylcellulose) (HPC)): 109 % of control
- T/C (dose: 1.87 mg/kg/injection, schedule: Q01DX009 (ip), vehicle: Klucel (hydroxypropylcellulose) (HPC)): 113 % of control
- T/C (dose: 3.75 mg/kg/injection, schedule: Q01DX009 (ip), vehicle: Klucel (hydroxypropylcellulose) (HPC)): 113 % of control
- T/C (dose: 7.5 mg/kg/injection, schedule: Q01DX009 (ip), vehicle: Klucel (hydroxypropylcellulose) (HPC)): 108 % of control
- T/C (dose: 11.0 mg/kg/injection, schedule: Q04DX003 (ip), vehicle: Klucel (hydroxypropylcellulose) (HPC)): 100 % of control
- T/C (dose: 17.0 mg/kg/injection, schedule: Q04DX003 (ip), vehicle: Klucel (hydroxypropylcellulose) (HPC)): 100 % of control

Compound: CCCNCCC(O)c1cc(C(F)(F)F)nc2c(C(F)(F)F)cccc12 (configuration not stated)
- T/C (dose: 25.0 mg/kg/injection, schedule: Q01DX009 (ip), vehicle: saline with Tween-80): 103 % of control
- T/C [9]: 111 % of control and 124 % of control
- T/C [10]: 111 % of control

Compound: CCOC(=O)COc1ccc(/C=C(\C)[N+](=O)[O-])c2ccccc12
- T/C [9]: 112 % of control and 123 % of control
- T/C [10]: 112 % of control
- T/C [11]: 122 % of control
- T/C (dose: 400.0 mg/kg/injection, schedule: Q01DX009 (ip), vehicle: saline with Tween-80): 106 % of control
